Test results: patent publication US11040028B2, “Penicinotam derivative, preparation method and use thereof” (OCEAN UNIVERSITY OF CHINA, priority 2017, dated 2021)

Legend:
Type in all cases: cell-based
[1] = system: human dermal fibroblasts CCC-ESF-1; assay: Anti-fibrosis activity test: inhibition of proliferation of human dermal fibroblasts CCC-ESF-1 (CCK-8); settings: Fibroblast
Summary of the method: (§1)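 Cells seeded at 2×10^4 cells/mL, adhered 24 h, then exposed to compound concentrations in triplicate for 48 h at 37° C, 5% CO2. CCK-8 added for 2 h, absorbance at 450 nm; inhibition = (1−Ai/Ao)×100% versus blank control, IC50 calculated.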

[2] = system: cardiac fibroblast RAT-iCell-C002; assay: Anti-fibrosis activity test: inhibition of proliferation of cardiac fibroblast RAT-iCell-C002 (CCK-8); settings: Cardiac fibroblast, 48 h
Summary of the method: as §1

NF-κB = assay: Immunological activity test: inhibition of NF-κB activity; settings: initial concentration of 30 μM; a/b isomers given as first/second symbol; read-out: IC50 (μM), inhibitory activity against NF-κB
Description: Main references for immunological activity test of the compounds of the present application includes: Vogl, S.; Atanasov, A. G.; Binder, M.; Bulusu, M.; Zehl, M.; Fakhrudin, N.; Heiss, E. H.; Picker, P.; Wawrosch, C.; Saukel, J.; Reznicek, G.; Urban, E.; Bochkov, V.; Dirsch, V. M.; Kopp, B. J. Evid-Based Complementary Alern. Med. 2013, ID 395316. Commercially available parthenolide was utilized as a positive control.
The ability of the compounds of the present application to inhibit NF-κB activity was tested at an initial concentration of 30 μM.
The assay data for the compounds of the present application were further analyzed to determine their IC50 values.

[3] = system: human hepatic stellate cells LX-2; assay: Anti-fibrosis activity test: inhibition of proliferation of human hepatic stellate cells LX-2 (CCK-8); settings: Homo sapiens, 48 h
Summary of the method: as §1

[4] = system: human lung fibroblasts HFL1; assay: Anti-fibrosis activity test: inhibition of proliferation of human lung fibroblasts HFL1 (CCK-8); settings: Homo sapiens, HFL1, 48 h
Summary of the method: as §1

[5] = system: human fibrosarcoma cells HT-1080; assay: Anti-fibrosis activity test: inhibition of proliferation of human fibrosarcoma cells HT-1080 (CCK-8); settings: Homo sapiens, HT-1080, 48 h
Summary of the method: as §1

BHK-21 cells = assay: Anti-fibrosis activity test: inhibition of BHK-21 cell proliferation (CCK-8); settings: Mesocricetus auratus, BHK-21, 48 h
Summary of the method: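 Cells plated 2×10^4 cells/mL; 24 h attach; compound dilutions, triplicate, 48 h, 37° C/5% CO2; CCK-8 2 h; A450; IR = (1−Ai/Ao)×100%; IC50 by curve fit.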

[6] = system: human embryonic lung fibroblast IMR-90; assay: Anti-fibrosis activity test: inhibition of proliferation of human embryonic lung fibroblast IMR-90 (CCK-8)
Summary of the method: as §1

[7] = system: mouse macrophages (RAW264.7); assay: Lipopolysaccharide-induced NO secretion in macrophages (Griess); settings: Mus musculus, RAW264.7, 24 h, RAW264.7, LPS 1 μg/ml, a/b isomers given as first/second symbol, read-out: IC50 (μM), inhibition of lipopolysaccharide-induced NO secretion in macrophages
Summary of the method: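 RAW264.7 macrophages in DMEM with 10% FBS received test samples at several concentrations and were stimulated with 1 μg/ml LPS for 24 h. NO in the supernatant was measured with the Griess reagent at 548 nm, […].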

[8] = human dermal fibroblasts CCC-ESF-1, CCK-8, 48 hours
[9] = cardiac fibroblast RAT-iCell-C002, CCK-8, 48 hours
[10] = human hepatic stellate cells LX-2, CCK-8, 48 hours
[11] = human lung fibroblasts HFL1, CCK-8, 48 hours
[12] = human fibrosarcoma cells HT-1080, CCK-8, 48 hours
[13] = CCK-8, 48 hours after administration
[14] = human embryonic lung fibroblast IMR-90, CCK-8, 48 hours
[15] = Homo sapiens, CCC-ESF-1 cells, 48 h, CCK-8
[16] = Homo sapiens, IMR-90 cells, 48 h, CCK-8

Row | Structure (SMILES) | IC50 [1, 8] | IC50 [2, 9] | IC50 (NF-κB) | IC50 [3, 10] | IC50 [4, 11] | IC50 [5, 12] | IC50 (BHK-21 cells; [13]) | IC50 [6, 14] | IC50 [1, 15] | IC50 ([2]; RAT-iCell-C002 cells, CCK-8) | IC50 ([3]; LX-2, 48 h, LX-2 cells, CCK-8) | IC50 ([4]; HFL1 cells, 48 h, CCK-8) | IC50 ([5]; HT-1080 cells, 48 h, CCK-8) | IC50 (BHK-21 cells; 48 h, CCK-8) | IC50 [6, 16] | IC50 [7]
1 | CC(C)n1c2c(c(=O)c3ccccc31)C(=O)n1cccc1-2 [Compound 5a, 4-Isopropyl-9H-pyrrolizino[1,2-b]quinoline-9,10(4H)-dione] | 0.05 to 5 mM | < 0.05 mM | 10 to 50 µM | 0.05 to 5 mM | 0.05 to 5 mM | 5 to 20 mM | 5 to 20 mM | 0.05 to 5 mM |  |  |  |  |  |  |  | 
2 | CC(C)Oc1c2c(nc3ccccc13)-c1cccn1C2=O [Compound 5b, 9-isopropoxy-10H-pyrrolizino[1,2-b]quinolin-10-one] | 0.05 to 5 mM | 0.05 to 5 mM | 10 to 50 µM | 5 to 20 mM | 0.05 to 5 mM | 5 to 20 mM | 0.05 to 5 mM | 0.05 to 5 mM |  |  |  |  |  |  |  | 
3 | CC(C)CCn1c2c(c(=O)c3ccccc31)C(=O)n1cccc1-2 [Compound 8a, 4-Isopentyl-9H-pyrrolizino[1,2-b]quinoline-9,10(4H)-dione] | 0.05 to 5 mM | 0.05 to 5 mM | 10 to 50 µM | 0.05 to 5 mM | 0.05 to 5 mM | 0.05 to 5 mM | 5 to 20 mM | 5 to 20 mM |  |  |  |  |  |  |  | 
4 | CC(C)CCOc1c2c(nc3ccccc13)-c1cccn1C2=O [Compound 8b, 9-(isopentyloxy)-10H-pyrrolizino[1,2-b]quinolin-10-one] | 0.05 to 5 mM | 0.05 to 5 mM | 10 to 50 µM | 0.05 to 5 mM | 0.05 to 5 mM | 0.05 to 5 mM | 0.05 to 5 mM | 0.05 to 5 mM |  |  |  |  |  |  |  | 
5 | CC(C)=CCn1c2c(c(=O)c3ccccc31)C(=O)n1cccc1-2 [Compound 9a, 4-(3-Methylbut-2-en-1-yl)-9H-pyrrolizino[1,2-b]quinoline-9,10(4H)-dione] | 5 to 20 mM | 0.05 to 5 mM | 1 to 10 µM | 0.05 to 5 mM | 0.05 to 5 mM | 0.05 to 5 mM | 20 to 100 mM | 0.05 to 5 mM |  |  |  |  |  |  |  | 
6 | O=C1c2c(n(Cc3ccc(F)cc3F)c3cc(N4CCNCC4)ccc3c2=O)-c2cccn21 [Compound 622a, 4-(2,4-Difluorobenzyl)-6-(piperazin-1-yl)-9H-pyrrolizino[1,2-b]quinoline-9,10(4H)-dione] | 0.05 to 5 mM | 0.05 to 5 mM | 1 to 10 µM |  | 0.05 to 5 mM | 0.05 to 5 mM | 0.05 to 5 mM | 0.05 to 5 mM |  |  |  |  |  |  |  | 
7 | O=C1c2c(nc3cc(N4CCNCC4)ccc3c2OCc2ccc(F)cc2F)-c2cccn21 [Compound 622b, 9-((2,4-difluorobenzyl)oxy)-6-(piperazin-1-yl)-10H-pyrrolizino[1,2-b]quinolin-10-one] | 0.05 to 5 mM | 0.05 to 5 mM | 1 to 10 µM |  |  | 0.05 to 5 mM | 0.05 to 5 mM | 0.05 to 5 mM |  |  |  |  |  |  |  | 
8 | O=C1c2c(nc3cc(N4CCNCC4)ccc3c2OCc2cc(C(F)(F)F)cc(C(F)(F)F)c2)-c2cccn21 [Compound 631b, 9-((3,5-bis(trifluoromethyl)benzyl)oxy)-6-(piperazin-1-yl)-10H-pyrrolizino[,2-b]quinolin-10-one] |  |  | 0.1 to 1 µM |  |  |  |  |  |  |  |  |  |  |  |  | 
9 | CCOCCCOc1c2c(nc3ccccc13)C(=O)n1cccc1-2 [Compound 791b, 11-(3-ethoxypropoxy)-5H-pyrrolizino[2,1-b]quinolin-5-one] |  |  |  |  |  |  |  |  | 0.05 to 5 mM | 0.05 to 5 mM | 0.05 to 5 mM | 0.05 to 5 mM | 0.05 to 5 mM | 0.05 to 5 mM | 0.05 to 5 mM | 1 to 10 µM
10 | O=C1c2c(c(=O)c3ccccc3n2CCN2CCNCC2)-c2cccn21 [Compound 792a, 6-(2-(Piperazin-1-yl)ethyl)-5H-pyrrolizino[2,1-b]quinoline-5,11(6H)-dione] |  |  |  |  |  |  |  |  | < 0.05 mM | 0.05 to 5 mM | 0.05 to 5 mM | 0.05 to 5 mM | 0.05 to 5 mM | 0.05 to 5 mM | 0.05 to 5 mM | 0.1 to 1 µM
11 | O=C1c2nc3ccccc3c(OCCN3CCNCC3)c2-c2cccn21 [Compound 792b, 11-(2-(piperazin-1-yl)ethoxy)-5H-pyrrolizino[2,1-b]quinolin-5-one] |  |  |  |  |  |  |  |  | < 0.05 mM | 0.05 to 5 mM | 0.05 to 5 mM | 0.05 to 5 mM | 0.05 to 5 mM | 0.05 to 5 mM | 0.05 to 5 mM | 0.1 to 1 µM
12 | O=C1c2c(c(=O)c3ccccc3n2CCCN2CCNCC2)-c2cccn21 [Compound 793a, 6-(3-(Piperazin-1-yl)propyl)-5H-pyrrolizino[2,1-b]quinoline-5,11(6H)-dione] |  |  |  |  |  |  |  |  | 0.05 to 5 mM | 0.05 to 5 mM | 0.05 to 5 mM | 0.05 to 5 mM | 0.05 to 5 mM | 0.05 to 5 mM | 0.05 to 5 mM | 0.1 to 1 µM
13 | O=C1c2nc3ccccc3c(OCCCN3CCNCC3)c2-c2cccn21 [Compound 793b, 11-(3-(piperazin-1-yl)propoxy)-5H-pyrrolizino[2,1-b]quinolin-5-one] |  |  |  |  |  |  |  |  | 0.05 to 5 mM | 0.05 to 5 mM | 0.05 to 5 mM | 0.05 to 5 mM | 0.05 to 5 mM | 0.05 to 5 mM | 0.05 to 5 mM | 0.1 to 1 µM
14 | O=C1c2c(c(=O)c3ccccc3n2CCCCN2CCNCC2)-c2cccn21 [Compound 794a, 6-(4-(Piperazin-1-yl)butyl)-5H-pyrrolizino[2,1-b]quinoline-5,11(6H)-dione] |  |  |  |  |  |  |  |  | 0.05 to 5 mM | 0.05 to 5 mM | 0.05 to 5 mM | 0.05 to 5 mM | 0.05 to 5 mM | 0.05 to 5 mM | 0.05 to 5 mM | 1 to 10 µM
15 | O=C1c2nc3ccccc3c(OCCCCN3CCNCC3)c2-c2cccn21 [Compound 794b, 11-(4-(piperazin-1-yl)butoxy)-5H-pyrrolizino[2,1-b]quinolin-5-one] |  |  |  |  |  |  |  |  | 0.05 to 5 mM | 0.05 to 5 mM | 0.05 to 5 mM | 0.05 to 5 mM | 0.05 to 5 mM | 0.05 to 5 mM | 0.05 to 5 mM | 1 to 10 µM
16 | N#Cc1ccccc1-c1ccc(Cn2c3c(c(=O)c4ccccc42)-c2cccn2C3=O)cc1 [Compound 795a, 4′-((5,11-Dioxo-5,11-dihydro-6H-pyrrolizino[2,1-b]quinolin-6-yl)methyl)-[1,1′-biphenyl]-2-carbonitrile] |  |  |  |  |  |  |  |  | 0.05 to 5 mM | 0.05 to 5 mM | 0.05 to 5 mM | 0.05 to 5 mM | 0.05 to 5 mM | 0.05 to 5 mM | 0.05 to 5 mM | 1 to 10 µM
17 | N#Cc1ccccc1-c1ccc(COc2c3c(nc4ccccc24)C(=O)n2cccc2-3)cc1 [Compound 795b, 4′-(((5-oxo-5H-pyrrolizino[2,1-b]quinolin-11-yl)oxy)methyl)-[1,1′-biphenyl]-2-carbonitrile] |  |  |  |  |  |  |  |  | 0.05 to 5 mM | 0.05 to 5 mM | 0.05 to 5 mM | 0.05 to 5 mM | 0.05 to 5 mM | 0.05 to 5 mM | 0.05 to 5 mM | 1 to 10 µM
18 | O=C1c2c(c(=O)c3ccccc3n2Cc2ccc(-c3ccccc3)cc2)-c2cccn21 [Compound 796a, 6-([1,1′-Biphenyl]-4-ylmethyl)-5H-pyrrolizino[2,1-b]quinoline-5,11(6H)-dione] |  |  |  |  |  |  |  |  | 0.05 to 5 mM | 0.05 to 5 mM | 0.05 to 5 mM | 0.05 to 5 mM | 0.05 to 5 mM | 0.05 to 5 mM | 0.05 to 5 mM | 1 to 10 µM
19 | O=C1c2nc3ccccc3c(OCc3ccc(-c4ccccc4)cc3)c2-c2cccn21 [Compound 796b, 11-([1,1′-biphenyl]-4-ylmethoxy)-5H-pyrrolizino[2,1-b]quinolin-5-one] |  |  |  |  |  |  |  |  | 0.05 to 5 mM | 0.05 to 5 mM | 0.05 to 5 mM | 0.05 to 5 mM | 0.05 to 5 mM | 0.05 to 5 mM | 0.05 to 5 mM | 1 to 10 µM
